The text below walks through data of patent US9630841B2, “Method for producing an aqueous stable chlorine dioxide solution” (A.P.F. AQUA SYSTEM AG, priority 2010, dated 2017).

Molecules are shown by their SMILES.

The conditions of data set [1]: aqueous solution, 20° C.; cited from earlier work.
Data set [2] in a line: Saturation limit of chlorine dioxide in water. The class given is physicochemical. To be noted: 5° C. and normal pressure. The source says: With the method according to the invention, chlorine dioxide solutions can be produced in any desired and/or suitable concentration. Preferably, aqueous solutions of up to about 2 wt %, preferably about 1 wt % of chlorine dioxide are produced with the method according to the invention. Chlorine dioxide solutions with higher concentrations are more difficult to obtain because of the limited solubility of chlorine dioxide in water, but they can nevertheless be realized. When using higher concentrations of chlorite for the production of the chlorine dioxide solutions according to the invention, in particular when using chlorite concentrations in the range of the saturation solubility of the corresponding chlorite salt, aqueous chlorine dioxide solutions with a concentration of up to about 4.5 wt % can be produced. The value of about 4.5 wt % represents the saturation limit of chlorine dioxide in water determined experimentally at 5° C. and normal pressure. With higher pressure, even free chlorine dioxide phases can be generated in water. […] This means that the solubility of chlorine dioxide is higher, the less foreign matter there is in the solution. […]

Turning to `O=S(=O)([O-])OOS(=O)(=O)[O-].[Na+].[Na+]` [sodium peroxodisulfate], in data set [1], the saturation concentration entry is on record as “about 54.5 wt %”.
In the case of `[O][Cl+][O-]` [chlorine dioxide], the “saturation limit of chlorine dioxide in water” value in data set [2] is given as “about 4.5 wt %”.
